Entries after “also recorded” stand apart in the source; their conditions may differ.
Key:
Col-0 wt seedlings [1] = assay: Seedling triple response of ethylene-treated etiolated Col-0 wt seedlings; type: in vivo, Arabidopsis
Procedure: (§1) For screening for chemicals that reduce ethylene response, Arabidopsis ctr1-3 seeds were planted on a microtiter plate containing PNS media in the presence of individual chemicals (50 μM concentration of each) from the Microsource Spectrum Collection. Seedlings were grown in the dark for 4 d after which they were scored for manifestation of the ethylene responsive triple response. For all other growth experiments, seedlings were planted on PNS media supplemented with the relevant chemical (Deslauriers and Larsen, 2010). For conditions requiring pamoic acid, media was supplemented with Pamoic acid disodium salt (Sigma Life Science, St. Louis, Mo.). Measurement of ethylene production was conducted as previously described (Deslauriers and Larsen, 2010).
For Col-0 wt, seedlings were grown in either the presence or absence of 5 μM AgNO3, an inhibitor of ethylene perception, or 100 μL L^−1 ethylene, which is a concentration that results in maximal response in etiolated seedlings. […] It should be noted that the phenotype of PA-treated seedlings in the presence of saturating ethylene is strikingly similar to ethylene-treated wei8 and tart loss-of-function mutants, which are deficient in auxin biosynthesis (Stepanova et al., 2008).

[2] = system: Col-0 wt, tir1-1, afb1-5, afb2-3, afb3-5, afb4-1 seedlings; assay: Hypocotyl and root elongation of auxin receptor loss-of-function mutants; type: in vivo, Arabidopsis; details: tir1-1, increasing range of Tolmetin
Source text: Loss of proper auxin signaling as in the dominant shy2-2 mutant (Tian et al., 2003), which fails to have proper turnover of the IAA3 repressor of auxin response, leads to severe hypocotyl shortening for etiolated seedlings (Robles et al., 2012). […] It was of interest to determine what effect PA might have on hypocotyl and root elongation for loss-of-function mutants representing members of the Arabidopsis family of auxin receptors. It was predicted that mutants for receptors with a more prominent role in auxin dependent maintenance of organ elongation would be more severely affected by PA treatment due to the additive effect of the loss-of-function mutation with the effect of this anti-auxinic compound.
For analysis of the role of the various receptors in hypocotyl elongation, Col-0 wt and loss-of-function mutants for all of the auxin receptors (Si-Ammour et al., 2011) except AFB5 were grown for 4 d in the dark in the absence or presence of 30 μM PA on media supplemented with 5 μM AgNO3, which was included to eliminate the negative effect of ethylene on hypocotyl elongation.
A similar result was found for tir1-1 roots. For this experiment, seedlings were grown in the dark for 4 d in the absence or presence of 30 μM PA after which root length was measured. […] This was confirmed by analysis of growth of Col-0 wt and tir1-1 roots across a range of PA concentrations.

ctr1-3 seedlings = assay: Seedling triple response of constitutive ethylene response mutant ctr1-3 (library screen and follow-up); type: in vivo, Arabidopsis
Procedure: as §1
A chemical library screen was performed in which etiolated seedlings of the constitutive ethylene response mutant, ctr1-3, were grown in air for 4 d in the presence of chemicals from the Microsource Spectrum Collection, a bioactive and natural compound library consisting of 2000 different compounds. ctr1-3 seedlings were scored for presentation of the ethylene regulated seedling triple response, consisting of severe hypocotyl and root shortening and exaggerated apical hook formation.

Col-0 wt seedlings [3] = assay: Root gravitropism on vertical agar plates; type: in vivo, Arabidopsis
DR5::GUS = assay: GUS analysis of auxin responsive DR5::GUS reporter line; type: in vivo, Arabidopsis
Procedure: GUS analysis of DR5::GUS lines was performed as previously described (Ni et al., 2001).
Auxin responsiveness has also been assessed using the Arabidopsis DR5::GUS transgenic line in which several auxin response elements are fused upstream of the GUS reporter gene (Ni et al., 2001). Normally, treatment of DR5::GUS lines with exogenous auxin leads to increased GUS levels, which can be visualized through accumulation of blue color upon adding X-Gluc.

TIR1-IAA7 complex = target: T1, TIR1-IAA7 complex (Arabidopsis thaliana, UniProt Q570C0); assay: In vitro assembly of the TIR1-IAA7 complex in the presence of auxin; type: biochemical
T1 sequence (Q570C0 1-594): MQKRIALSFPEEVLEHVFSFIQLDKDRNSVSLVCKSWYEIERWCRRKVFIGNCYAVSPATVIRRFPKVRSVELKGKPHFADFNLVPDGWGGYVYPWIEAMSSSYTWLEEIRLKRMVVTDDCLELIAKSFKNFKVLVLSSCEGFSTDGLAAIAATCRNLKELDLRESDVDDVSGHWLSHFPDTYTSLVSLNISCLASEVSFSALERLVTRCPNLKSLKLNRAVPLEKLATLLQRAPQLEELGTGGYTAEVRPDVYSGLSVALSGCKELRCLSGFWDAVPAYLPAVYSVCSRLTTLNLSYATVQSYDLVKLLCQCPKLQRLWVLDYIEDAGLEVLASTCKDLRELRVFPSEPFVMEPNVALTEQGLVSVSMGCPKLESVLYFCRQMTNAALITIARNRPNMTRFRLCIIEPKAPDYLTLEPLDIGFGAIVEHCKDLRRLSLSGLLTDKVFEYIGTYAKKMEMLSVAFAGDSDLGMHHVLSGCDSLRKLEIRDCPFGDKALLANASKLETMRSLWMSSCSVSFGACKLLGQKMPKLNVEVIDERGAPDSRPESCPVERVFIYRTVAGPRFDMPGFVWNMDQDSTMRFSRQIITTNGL
Source text: It should be noted that based on our growth analysis with various loss-of-function mutants for auxin receptors, it is likely that one or more of the other receptors are affected to a greater extent than TIR1 by each of these chemicals.

Col-0 wt seedlings [4] = assay: Root length dose response; type: in vivo, Arabidopsis
Procedure: as §1
Auxin is required for normal root growth since at physiological concentrations it promotes cell elongation.

Col-0 wt seedlings [5] = assay: Blockage of auxin dependent inhibition of root growth; type: in vivo, Arabidopsis
Procedure: For screening for chemicals that reduce ethylene response, Arabidopsis ctr1-3 seeds were planted on a microtiter plate containing PNS media in the presence of individual chemicals (50 μM concentration of each) from the Microsource Spectrum Collection. Seedlings were grown in the dark for 4 d after which they were scored for manifestation of the ethylene responsive triple response. For all other growth experiments, seedlings were planted on PNS media supplemented with the relevant chemical (Deslauriers and Larsen, 2010). For conditions requiring pamoic acid, media was supplemented with Pamoic acid disodium salt (Sigma Life Science, St. Louis, Mo.). Measurement of ethylene production was conducted as previously described (Deslauriers and Larsen, 2010). […]

[6] = system: etiolated Col-0 wt seedlings; assay: Measurement of ethylene biosynthesis by gas chromatography; type: in vivo, Arabidopsis
Procedure: as §1

[7] = etiolated ctr1-3 in air, 4 d, 50 μM of each chemical
[8] = 5 days in the light, 50 micromolar Tolmetin (FIG. 7)

Cc1ccc(C(=O)c2ccc(CC(=O)O)n2C)cc1 [Tolmetin]
seedling length independent of ethylene (Col-0 wt seedlings [1]; Col-0 wt with 5 μM AgNO3, 4 d dark, 10 μM PA or Tolmetin up to 30 μM): negative effect was not seen
manifestation of the ethylene dependent seedling triple response (loss of apical hook formation) (Col-0 wt seedlings [1]; Tolmetin 20-100 micromolar, Col-0 wt treated with saturating ethylene (FIG. 1)): partially blocks
apical hook formation (Col-0 wt seedlings [1]; etiolated Col-0 wt, 100 μL L−1 (saturating) ethylene, 4 d dark, 10 μM PA or Tolmetin up to 30 μM): prevent apical hook formation; also recorded: nearly complete loss of apical hook formation
root length / organ specificity of effect in ethylene treated seedlings (Col-0 wt seedlings [1]; etiolated Col-0 wt, saturating ethylene, 4 d dark, 10 μM PA or Tolmetin up to 30 μM): specific to hypocotyls
root growth sensitivity of tir1-1 [2]: hypersensitive
ethylene-dependent root growth inhibition (ctr1-3 seedlings; ctr1-3, 10 μM PA or 30 micromolar Tolmetin): did not prevent the severe root growth inhibition; also recorded: does not affect ethylene-dependent root growth inhibition
root growth of light grown ctr1-3 (ctr1-3 seedlings; ctr1-3 grown in the light, increasing concentrations of Tolmetin (FIG. 3)): No positive effect on root growth was observed
apical hook formation (ctr1-3 seedlings; dark grown ctr1-3, 10 μM PA or 30 μM Tolmetin): prevent apical hook formation; also recorded: fully eliminated apical hook formation; also recorded: nearly complete loss of apical hook formation
apical hook formation in chemical library screen (ctr1-3 seedlings; [7]): blocked apical hook formation
root length in chemical library screen (ctr1-3 seedlings; [7]): measurably longer roots
direction of root growth (gravitropism) (Col-0 wt seedlings [3]; 4 d, vertical agar plates, 30 μM PA or 50 μM Tolmetin): grew in a random manner that was independent of gravity
direction of root growth (gravitropism) (Col-0 wt seedlings [3]; [8]): agravitropic root growth
root hairs (Col-0 wt seedlings [3]; [8]): completely lacked root hairs
dark color (GUS) in the absence of exogenous auxin (DR5::GUS; 0 versus 100 micromolar Tolmetin, no exogenous auxin (FIG. 8)): comparable level of dark color
staining / auxin dependent lateral root formation (DR5::GUS; 100 μM Tolmetin, 750 nM IAA (FIG. 8)): prevented staining in the area of lateral root development; also recorded: completely blocks auxin dependent lateral root formation
auxin dependent accumulation of GUS in root tips (DR5::GUS; 100 μM Tolmetin, exposure to IAA): blocked auxin dependent accumulation of GUS in root tips
blockage of assembly of the TIR1-IAA7 complex (TIR1-IAA7 complex): not been possible to demonstrate
root length at increasing concentrations (Col-0 wt seedlings [4]; Col-0 wt, 7 d, increasing concentrations, versus untreated control roots): severe inhibition of root length
root growth at low concentrations (Col-0 wt seedlings [4]; Col-0 wt, 7 d, low concentrations): stimulatory effect
root length (Col-0 wt seedlings [4]; light, increasing concentrations of Tolmetin, 5 days (FIG. 5)): inhibitory to root growth at high concentrations
inhibitory effect of Tolmetin on root length on addition of IAA (Col-0 wt seedlings [5]; 5 days, 50 micromolar Tolmetin plus 300 nM IAA (FIG. 6)): almost completely overcome
root length, Tolmetin alone (Col-0 wt seedlings [5]; 5 days, 50 micromolar Tolmetin, 0 nM IAA (FIG. 6)): significant root growth inhibition
root length, anti-auxin alone (Col-0 wt seedlings [5]; light, 7 d, 30 μM PA or 50 μM Tolmetin alone versus untreated roots): significantly inhibited
inhibitory effects of exogenous auxin on root length (Col-0 wt seedlings [5]; light, 7 d, 30 μM PA with 150 nM NAA, 50 μM Tolmetin with 300 nM IAA): greatly reduced the inhibitory effects of exogenous auxin
ethylene biosynthesis ([6]; 10 μM PA or 30 μM Tolmetin, 96 h, ethylene generated in the last 18 h): no measurable effect on ethylene biosynthesis
ethylene biosynthesis ([6]; 50 micromolar Tolmetin, 4 days in the dark (FIG. 4)): does not reduce ethylene biosynthesis
